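48-hour exposure; five concentrations; linearly interpolated endpoints. TGI denotes the concentration required for complete inhibition of growth.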
Assays:
Test in all cases: growth of human tumour cells (NCI), 48 h
786-0 renal = test system: 786-0 renal
A498 renal = test system: A498 renal
A549 NSCLC = test system: A549 NSCLC
ACHN renal = test system: ACHN renal
BT-549 breast = test system: BT-549 breast
COLO 205 colon = test system: COLO 205 colon
DU-145 prostate = test system: DU-145 prostate
HCC-2998 colon = test system: HCC-2998 colon
HCT-116 colon = test system: HCT-116 colon
HCT-15 colon = test system: HCT-15 colon
HL-60(TB) leukemia = test system: HL-60(TB) leukemia
HOP-62 NSCLC = test system: HOP-62 NSCLC
HOP-92 NSCLC = test system: HOP-92 NSCLC
HS 578T breast = test system: HS 578T breast
HT29 colon = test system: HT29 colon
IGROV1 ovarian = test system: IGROV1 ovarian
K-562 leukemia = test system: K-562 leukemia
LOX IMVI melanoma = test system: LOX IMVI melanoma
M14 melanoma = test system: M14 melanoma
MALME-3M melanoma = test system: MALME-3M melanoma
MCF7 breast = test system: MCF7 breast
MDA-MB-231 breast = test system: MDA-MB-231 breast
MDA-MB-435 = test system: MDA-MB-435
MDA-N = test system: MDA-N
NCI-H226 lung = test system: NCI-H226 lung
NCI-H23 lung = test system: NCI-H23 lung
NCI-H460 lung = test system: NCI-H460 lung
NCI-H522 lung = test system: NCI-H522 lung
NCI/ADR-RES ovarian = test system: NCI/ADR-RES ovarian
OVCAR-3 ovarian = test system: OVCAR-3 ovarian
OVCAR-4 ovarian = test system: OVCAR-4 ovarian
OVCAR-5 ovarian = test system: OVCAR-5 ovarian
OVCAR-8 ovarian = test system: OVCAR-8 ovarian
PC-3 prostate = test system: PC-3 prostate
RXF 393 renal = test system: RXF 393 renal
SF-268 CNS = test system: SF-268 CNS
SF-295 CNS = test system: SF-295 CNS
SF-539 CNS = test system: SF-539 CNS
SK-MEL-2 melanoma = test system: SK-MEL-2 melanoma
SK-MEL-28 melanoma = test system: SK-MEL-28 melanoma
SK-MEL-5 melanoma = test system: SK-MEL-5 melanoma
SK-OV-3 ovarian = test system: SK-OV-3 ovarian
SN12C renal = test system: SN12C renal
SNB-19 CNS = test system: SNB-19 CNS
SNB-75 CNS = test system: SNB-75 CNS
SR leukemia = test system: SR leukemia
SW-620 colon = test system: SW-620 colon
TK-10 renal = test system: TK-10 renal
U251 CNS = test system: U251 CNS
UACC-257 melanoma = test system: UACC-257 melanoma
UACC-62 melanoma = test system: UACC-62 melanoma
UO-31 renal = test system: UO-31 renal
CAKI-1 renal = test system: CAKI-1 renal
CCRF-CEM leukemia = test system: CCRF-CEM leukemia
EKVX NSCLC = test system: EKVX NSCLC
KM12 colon = test system: KM12 colon
MOLT-4 leukemia = test system: MOLT-4 leukemia
RPMI-8226 leukemia = test system: RPMI-8226 leukemia

Q: Which TGI (786-0 renal) does the source give for `CCCCCCN1CCc2c(C)c(C#N)c3nc4ccccc4n3c21` here?
A: > 100 µM

Q: And the TGI (A498 renal)?
A: > 100 µM

Q: And the TGI (A549 NSCLC)?
A: > 100 µM

Q: And the TGI (ACHN renal)?
A: > 100 µM

Q: And the TGI (BT-549 breast)?
A: > 100 µM

Q: And the TGI (COLO 205 colon)?
A: > 100 µM

Q: And the TGI (DU-145 prostate)?
A: > 100 µM

Q: And the TGI (HCC-2998 colon)?
A: > 100 µM

Q: And the TGI (HCT-116 colon)?
A: > 100 µM

Q: And the TGI (HCT-15 colon)?
A: > 100 µM

Q: What about the TGI (HL-60(TB) leukemia) of the same molecule?
A: > 100 µM

Q: And the TGI (HOP-62 NSCLC)?
A: > 100 µM

Q: What about the TGI (HOP-92 NSCLC) of the same molecule?
A: > 100 µM

Q: What about the TGI (HS 578T breast) of the same molecule?
A: 75.6 µM

Q: And the TGI (HT29 colon)?
A: > 100 µM

Q: And the TGI (IGROV1 ovarian)?
A: > 100 µM

Q: And the TGI (K-562 leukemia)?
A: > 100 µM

Q: And the TGI (LOX IMVI melanoma)?
A: > 100 µM

Q: And the TGI (M14 melanoma)?
A: > 100 µM

Q: And the TGI (MALME-3M melanoma)?
A: > 100 µM

Q: What about the TGI (MCF7 breast) of the same molecule?
A: 41.5 µM

Q: And the TGI (MDA-MB-231 breast)?
A: > 100 µM

Q: And the TGI (MDA-MB-435)?
A: 93.8 µM

Q: And the TGI (MDA-N)?
A: > 100 µM

Q: And the TGI (NCI-H226 lung)?
A: > 100 µM

Q: What about the TGI (NCI-H23 lung) of the same molecule?
A: > 100 µM

Q: And the TGI (NCI-H460 lung)?
A: > 100 µM

Q: What about the TGI (NCI-H522 lung) of the same molecule?
A: > 100 µM

Q: And the TGI (NCI/ADR-RES ovarian)?
A: > 100 µM

Q: What about the TGI (OVCAR-3 ovarian) of the same molecule?
A: > 100 µM

Q: And the TGI (OVCAR-4 ovarian)?
A: > 100 µM

Q: What about the TGI (OVCAR-5 ovarian) of the same molecule?
A: > 100 µM

Q: And the TGI (OVCAR-8 ovarian)?
A: > 100 µM

Q: And the TGI (PC-3 prostate)?
A: > 100 µM

Q: What about the TGI (RXF 393 renal) of the same molecule?
A: > 100 µM

Q: And the TGI (SF-268 CNS)?
A: > 100 µM

Q: What about the TGI (SF-295 CNS) of the same molecule?
A: > 100 µM

Q: What about the TGI (SF-539 CNS) of the same molecule?
A: > 100 µM

Q: What about the TGI (SK-MEL-2 melanoma) of the same molecule?
A: > 100 µM

Q: And the TGI (SK-MEL-28 melanoma)?
A: > 100 µM

Q: What about the TGI (SK-MEL-5 melanoma) of the same molecule?
A: > 100 µM

Q: What about the TGI (SK-OV-3 ovarian) of the same molecule?
A: > 100 µM

Q: And the TGI (SN12C renal)?
A: > 100 µM

Q: What about the TGI (SNB-19 CNS) of the same molecule?
A: > 100 µM

Q: And the TGI (SNB-75 CNS)?
A: > 100 µM

Q: What about the TGI (SR leukemia) of the same molecule?
A: > 100 µM

Q: And the TGI (SW-620 colon)?
A: > 100 µM

Q: What about the TGI (TK-10 renal) of the same molecule?
A: > 100 µM

Q: And the TGI (U251 CNS)?
A: > 100 µM

Q: What about the TGI (UACC-257 melanoma) of the same molecule?
A: > 100 µM

Q: What about the TGI (UACC-62 melanoma) of the same molecule?
A: > 100 µM

Q: What about the TGI (UO-31 renal) of the same molecule?
A: > 100 µM

Q: `CC(=O)/C=c1\[nH]/c(=C\C=C\c2ccccc2)c(=O)n1/C=C1\C(=O)Oc2ccccc2C1=O` was tested. Which TGI (786-0 renal) did it give?
A: > 100 µM

Q: What about the TGI (A498 renal) of the same molecule?
A: > 100 µM

Q: What about the TGI (A549 NSCLC) of the same molecule?
A: > 100 µM

Q: And the TGI (ACHN renal)?
A: > 100 µM

Q: And the TGI (BT-549 breast)?
A: > 100 µM

Q: And the TGI (CAKI-1 renal)?
A: > 100 µM

Q: What about the TGI (CCRF-CEM leukemia) of the same molecule?
A: > 100 µM

Q: And the TGI (COLO 205 colon)?
A: > 100 µM

Q: What about the TGI (DU-145 prostate) of the same molecule?
A: > 100 µM

Q: What about the TGI (EKVX NSCLC) of the same molecule?
A: > 100 µM

Q: And the TGI (HCT-116 colon)?
A: > 100 µM

Q: What about the TGI (HCT-15 colon) of the same molecule?
A: > 100 µM

Q: What about the TGI (HL-60(TB) leukemia) of the same molecule?
A: > 100 µM

Q: And the TGI (HOP-92 NSCLC)?
A: > 100 µM

Q: And the TGI (HS 578T breast)?
A: > 100 µM

Q: And the TGI (HT29 colon)?
A: > 100 µM

Q: What about the TGI (IGROV1 ovarian) of the same molecule?
A: > 100 µM

Q: What about the TGI (K-562 leukemia) of the same molecule?
A: > 100 µM

Q: What about the TGI (KM12 colon) of the same molecule?
A: > 100 µM

Q: What about the TGI (LOX IMVI melanoma) of the same molecule?
A: > 100 µM

Q: And the TGI (M14 melanoma)?
A: > 100 µM

Q: And the TGI (MALME-3M melanoma)?
A: > 100 µM

Q: And the TGI (MCF7 breast)?
A: > 100 µM

Q: And the TGI (MDA-MB-231 breast)?
A: > 100 µM

Q: What about the TGI (MDA-MB-435) of the same molecule?
A: > 100 µM

Q: What about the TGI (MDA-N) of the same molecule?
A: > 100 µM

Q: And the TGI (MOLT-4 leukemia)?
A: > 100 µM

Q: What about the TGI (NCI-H226 lung) of the same molecule?
A: > 100 µM

Q: What about the TGI (NCI-H23 lung) of the same molecule?
A: > 100 µM

Q: And the TGI (NCI-H522 lung)?
A: > 100 µM

Q: What about the TGI (NCI/ADR-RES ovarian) of the same molecule?
A: > 100 µM

Q: What about the TGI (OVCAR-3 ovarian) of the same molecule?
A: > 100 µM

Q: What about the TGI (OVCAR-4 ovarian) of the same molecule?
A: > 100 µM

Q: What about the TGI (OVCAR-5 ovarian) of the same molecule?
A: > 100 µM

Q: What about the TGI (OVCAR-8 ovarian) of the same molecule?
A: > 100 µM

Q: And the TGI (PC-3 prostate)?
A: > 100 µM

Q: And the TGI (RPMI-8226 leukemia)?
A: > 100 µM

Q: What about the TGI (SF-268 CNS) of the same molecule?
A: > 100 µM

Q: And the TGI (SF-539 CNS)?
A: > 100 µM

Q: What about the TGI (SK-MEL-2 melanoma) of the same molecule?
A: > 100 µM

Q: What about the TGI (SK-MEL-28 melanoma) of the same molecule?
A: > 100 µM

Q: What about the TGI (SK-MEL-5 melanoma) of the same molecule?
A: > 100 µM

Q: What about the TGI (SK-OV-3 ovarian) of the same molecule?
A: > 100 µM

Q: What about the TGI (SNB-19 CNS) of the same molecule?
A: > 100 µM

Q: What about the TGI (SNB-75 CNS) of the same molecule?
A: > 100 µM

Q: What about the TGI (SR leukemia) of the same molecule?
A: > 100 µM

Q: What about the TGI (SW-620 colon) of the same molecule?
A: > 100 µM

Q: And the TGI (TK-10 renal)?
A: > 100 µM

Q: And the TGI (U251 CNS)?
A: > 100 µM

Q: What about the TGI (UACC-257 melanoma) of the same molecule?
A: > 100 µM

Q: And the TGI (UACC-62 melanoma)?
A: > 100 µM

Q: What about the TGI (UO-31 renal) of the same molecule?
A: > 100 µM
